Experimental data: PubChem BioAssay (NCI)
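48-hour exposure; five concentrations; linearly interpolated endpoints. At the TGI there is no net growth.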

Columns and labels:
Experiment in all cases: growth of human tumour cells (NCI), 48 h
HOP-92 NSCLC = tested on: HOP-92 NSCLC
ACHN renal = tested on: ACHN renal
786-0 renal = tested on: 786-0 renal
OVCAR-3 ovarian = tested on: OVCAR-3 ovarian
MDA-MB-231 breast = tested on: MDA-MB-231 breast
MOLT-4 leukemia = tested on: MOLT-4 leukemia
HL-60(TB) leukemia = tested on: HL-60(TB) leukemia
A549 NSCLC = tested on: A549 NSCLC
M14 melanoma = tested on: M14 melanoma
MDA-MB-435 = tested on: MDA-MB-435
KM12 colon = tested on: KM12 colon
CCRF-CEM leukemia = tested on: CCRF-CEM leukemia
SK-OV-3 ovarian = tested on: SK-OV-3 ovarian
SF-295 CNS = tested on: SF-295 CNS
A498 renal = tested on: A498 renal
HOP-62 NSCLC = tested on: HOP-62 NSCLC
PC-3 prostate = tested on: PC-3 prostate
RPMI-8226 leukemia = tested on: RPMI-8226 leukemia
SK-MEL-28 melanoma = tested on: SK-MEL-28 melanoma
NCI/ADR-RES ovarian = tested on: NCI/ADR-RES ovarian
RXF 393 renal = tested on: RXF 393 renal
OVCAR-5 ovarian = tested on: OVCAR-5 ovarian
CAKI-1 renal = tested on: CAKI-1 renal
COLO 205 colon = tested on: COLO 205 colon
SF-268 CNS = tested on: SF-268 CNS
UACC-257 melanoma = tested on: UACC-257 melanoma
NCI-H522 lung = tested on: NCI-H522 lung
DU-145 prostate = tested on: DU-145 prostate
EKVX NSCLC = tested on: EKVX NSCLC
MCF7 breast = tested on: MCF7 breast
SF-539 CNS = tested on: SF-539 CNS
UACC-62 melanoma = tested on: UACC-62 melanoma
IGROV1 ovarian = tested on: IGROV1 ovarian
HS 578T breast = tested on: HS 578T breast
NCI-H460 lung = tested on: NCI-H460 lung
OVCAR-8 ovarian = tested on: OVCAR-8 ovarian
HCC-2998 colon = tested on: HCC-2998 colon
UO-31 renal = tested on: UO-31 renal
K-562 leukemia = tested on: K-562 leukemia
HCT-15 colon = tested on: HCT-15 colon
U251 CNS = tested on: U251 CNS
OVCAR-4 ovarian = tested on: OVCAR-4 ovarian
SR leukemia = tested on: SR leukemia
LOX IMVI melanoma = tested on: LOX IMVI melanoma
HT29 colon = tested on: HT29 colon
TK-10 renal = tested on: TK-10 renal
SNB-75 CNS = tested on: SNB-75 CNS
SN12C renal = tested on: SN12C renal
HCT-116 colon = tested on: HCT-116 colon
T-47D breast = tested on: T-47D breast
MDA-N = tested on: MDA-N
SK-MEL-5 melanoma = tested on: SK-MEL-5 melanoma
NCI-H23 lung = tested on: NCI-H23 lung
SW-620 colon = tested on: SW-620 colon
SNB-19 CNS = tested on: SNB-19 CNS
NCI-H226 lung = tested on: NCI-H226 lung
SK-MEL-2 melanoma = tested on: SK-MEL-2 melanoma
MALME-3M melanoma = tested on: MALME-3M melanoma

Compound: O=CCOCc1cc2c(cc1Br)OCO2
- TGI (HOP-92 NSCLC): > 100 µM
- TGI (ACHN renal): 55.1 µM
- TGI (786-0 renal): 36.7 µM
- TGI (OVCAR-3 ovarian): 35.7 µM
- TGI (MDA-MB-231 breast): 44.4 µM
- TGI (MOLT-4 leukemia): > 100 µM
- TGI (HL-60(TB) leukemia): 48.8 µM
- TGI (A549 NSCLC): > 100 µM
- TGI (M14 melanoma): 46.7 µM
- TGI (MDA-MB-435): > 100 µM
- TGI (KM12 colon): > 100 µM
- TGI (CCRF-CEM leukemia): 47.7 µM
- TGI (SK-OV-3 ovarian): > 100 µM
- TGI (SF-295 CNS): > 100 µM
- TGI (A498 renal): > 100 µM
- TGI (HOP-62 NSCLC): > 100 µM
- TGI (PC-3 prostate): 59.6 µM
- TGI (RPMI-8226 leukemia): > 100 µM
- TGI (SK-MEL-28 melanoma): > 100 µM
- TGI (NCI/ADR-RES ovarian): 40.4 µM
- TGI (RXF 393 renal): > 100 µM
- TGI (OVCAR-5 ovarian): > 100 µM
- TGI (CAKI-1 renal): 42.7 µM
- TGI (COLO 205 colon): > 100 µM
- TGI (SF-268 CNS): 47.8 µM
- TGI (UACC-257 melanoma): > 100 µM
- TGI (NCI-H522 lung): 33.3 µM
- TGI (DU-145 prostate): > 100 µM
- TGI (EKVX NSCLC): > 100 µM
- TGI (MCF7 breast): 42.9 µM
- TGI (SF-539 CNS): 50.2 µM
- TGI (UACC-62 melanoma): > 100 µM
- TGI (IGROV1 ovarian): > 100 µM
- TGI (HS 578T breast): 44.7 µM
- TGI (NCI-H460 lung): > 100 µM
- TGI (OVCAR-8 ovarian): 52.5 µM
- TGI (HCC-2998 colon): > 100 µM
- TGI (UO-31 renal): 42.9 µM
- TGI (K-562 leukemia): > 100 µM
- TGI (HCT-15 colon): 46.1 µM
- TGI (U251 CNS): 90.5 µM
- TGI (OVCAR-4 ovarian): 45.8 µM
- TGI (SR leukemia): 68.1 µM
- TGI (LOX IMVI melanoma): 47.1 µM
- TGI (HT29 colon): 38.6 µM
- TGI (TK-10 renal): > 100 µM
- TGI (SNB-75 CNS): > 100 µM
- TGI (SN12C renal): > 100 µM
- TGI (HCT-116 colon): 45 µM
- TGI (T-47D breast): 61.6 µM
- TGI (MDA-N): > 100 µM
- TGI (SK-MEL-5 melanoma): 36.1 µM
- TGI (NCI-H23 lung): 28.7 µM
- TGI (SW-620 colon): 50.3 µM

Compound: N=C1N(c2ccccc2)C(=S)C(=Nc2ccccc2)N1c1ccccc1
- TGI (HOP-92 NSCLC): 22.9 µM
- TGI (ACHN renal): 20.6 µM
- TGI (786-0 renal): 22.2 µM
- TGI (OVCAR-3 ovarian): 9.55 µM
- TGI (MDA-MB-231 breast): 20.9 µM
- TGI (MOLT-4 leukemia): 7.55 µM
- TGI (SNB-19 CNS): 30.4 µM
- TGI (HL-60(TB) leukemia): 10.9 µM
- TGI (A549 NSCLC): 42.1 µM
- TGI (M14 melanoma): 23.6 µM
- TGI (MDA-MB-435): 3.94 µM
- TGI (NCI-H226 lung): 36.3 µM
- TGI (KM12 colon): 27.2 µM
- TGI (CCRF-CEM leukemia): > 20.7 µM
- TGI (SK-OV-3 ovarian): 33 µM
- TGI (SF-295 CNS): 30.5 µM
- TGI (A498 renal): 31.8 µM
- TGI (HOP-62 NSCLC): 34.1 µM
- TGI (PC-3 prostate): 24.8 µM
- TGI (RPMI-8226 leukemia): 13.9 µM
- TGI (SK-MEL-28 melanoma): 31.7 µM
- TGI (NCI/ADR-RES ovarian): 38.6 µM
- TGI (SK-MEL-2 melanoma): 12.4 µM
- TGI (RXF 393 renal): 25 µM
- TGI (OVCAR-5 ovarian): 32.1 µM
- TGI (CAKI-1 renal): 27.7 µM
- TGI (COLO 205 colon): 12.1 µM
- TGI (SF-268 CNS): 29.7 µM
- TGI (UACC-257 melanoma): 7.52 µM
- TGI (NCI-H522 lung): 7.72 µM
- TGI (DU-145 prostate): 31.2 µM
- TGI (MALME-3M melanoma): 26.6 µM
- TGI (EKVX NSCLC): 53.1 µM
- TGI (MCF7 breast): 3.46 µM
- TGI (SF-539 CNS): 24.9 µM
- TGI (UACC-62 melanoma): 13.5 µM
- TGI (IGROV1 ovarian): 25.9 µM
- TGI (HS 578T breast): 47.4 µM
- TGI (NCI-H460 lung): 31 µM
- TGI (OVCAR-8 ovarian): 16.7 µM
- TGI (HCC-2998 colon): 30.7 µM
- TGI (UO-31 renal): 16.7 µM
- TGI (K-562 leukemia): 9.59 µM
- TGI (HCT-15 colon): 21.9 µM
- TGI (U251 CNS): 27.3 µM
- TGI (OVCAR-4 ovarian): 26.8 µM
- TGI (SR leukemia): > 48.4 µM
- TGI (LOX IMVI melanoma): 5.14 µM
- TGI (HT29 colon): 18.3 µM
- TGI (TK-10 renal): 28.2 µM
- TGI (SNB-75 CNS): 29.4 µM
- TGI (SN12C renal): 27.8 µM
- TGI (HCT-116 colon): 7.26 µM
- TGI (T-47D breast): 9.21 µM
- TGI (MDA-N): 6.1 µM
- TGI (SK-MEL-5 melanoma): 6.21 µM
- TGI (NCI-H23 lung): 18 µM
- TGI (SW-620 colon): 13 µM
